# Assay results from patent publication US20110306579A1, “METHODS OF NEUROPROTECTION USING NEUROPROTECTIVE STEROIDS AND A VITAMIN D” (EMORY UNIVERSITY, priority 2009, published 2011).
# Assays:
# [1] = tested on: E18 rat primary cortical neurons; assay: Morphological analysis of cortical cultures (phase contrast); assay type: cell-based; conditions: glutamate 0.5 μM for 24 h; data not shown
# Source text: Changes in the morphology of neurons treated with different drugs in various groups were observed using a phase-contrast microscope (Nikon). Primary cultures were mainly observed for neurite outgrowth, a hallmark feature of healthy cells, and the density of healthy cells in different groups.
# [2] = tested on: moderate to severe TBI patients; conditions: cited from earlier work
# [3] = tested on: 20-month-old male Fischer 344 rats; assay: Spontaneous locomotor activity (open field) after TBI; assay type: in vivo, rat; conditions: 72 hours after injury; normalized to sham
# Source text: The animals in this study were separated into two groups, vitamin D normal (D-normal) and vitamin D deficient (D-deficient). […] Animals in the D-deficient group were maintained on the diet for at least 21 days prior to surgery. […] For this same reason the null diet was not altered in any other way, and the rats assigned to the D-deficient group were maintained on it until they were killed for harvesting of brain tissue. Since vitamin D is activated by UVB light (280-315 nm wavelength), the overhead lights were modified to not produce radiation in this range.
# Animals dehydrated due to blood loss were given 3 mL of lactated Ringer's solution subcutaneously within 6 hours of injury.
# Animals were assigned to D-normal or D-deficicnt groups. […] The same assignment was followed for both 24-hour and 72-hour survival groups. […] All drug treatments were dissolved in vehicle, and injection volume was equally proportional to each animal's weight across all groups. The intact sham (SHAM) groups served to provide baseline data and therefore received no injury or injections.
# In addition to molecular measures of inflammatory cytokines, the behavioral effects of the various treatments were examined. Since this study was limited to the short term effects on inflammation, only short-term Spontaneous Locomotor Activity was used.
# MAPK (ERK1/2) = assay: MAPK phosphorylation (p-ERK1/2 Western blot) in primary cortical neurons; assay type: cell-based, rat; conditions: PROG 20 μM, 30-minute treatment
# Procedure: PROG and VDH were added to the primary cultures, as described above, for 30 minutes ([…], et al., (2002) Endocrinology 143: 205-212) and the cells were lysed using RIPA lysis buffer kit (sc-24948, Santa Cruz, Calif., USA). Protein was determined in cell lysates by bicinchoninic acid (BCA) protein assay (Cat. # 23225, Pierce, Rockford, Ill., USA). Cell lysates (40 μg protein each sample) were separated under reducing and denaturing conditions by 12.5% acrylamide Criterion gel (BioRad, Hercules, Calif., USA) at 200V for 1 hour and transferred to a polyvinylidene difluoride (PVDF) membrane at 100V for 30 minutes. The non-specific binding sites of the membrane were blocked with 5% non-fat dry milk in PBS-T (phosphate buffered saline containing 0.05% Tween-20). […] Membranes were then incubated in horseradish peroxidase (HRP)-conjugated secondary antibody (Goat anti-rabbit IgG; 074-1506, KPL, Gaithersburg, Md., USA). β-actin was probed as a loading control. Blots were developed using a chemiluminescent substrate (Pierce) for 5 minutes.
# [4] = tested on: 20-month old Fischer 344 rats; assay: Cerebral edema analysis after cortical contusion brain injury; assay type: in vivo, rat; conditions: 4 mg/kg
# Procedure: The methodology used is described in VanLandingham et al., Neuropharmacology, 2006, 51, 1078-1085.
# Sterile surgical procedures were used to prevent animal infection. Rats (20-month old Fischer 344 rats, which are the “human” equivalent of about 60 years old) were anesthetized and maintained on isoflurane and an equivalent amount of […] and O2 for 3 min prior to surgery. After brain contusion, O2 levels were doubled compared to […] and maintained through the reainder of the surgery procedure. A stereotaxic apparatus was used to stabilize the head in a horizontal position. Core body temperature was monitored and maintained at 37° C. using a Harvard homeothermic blanket (Harvard Apparatus, Holliston, Mass.). There was no direct measure used to deterct brain temperature. Blood oxygen and heart rate were maintained using a SurgiVet monitor (SurgiVet, Waukesha, Wis.) and maintained above 90% and 340 bpm respectively. A midline incision was made and the scalp retracted. A bilateral 6-mm craniotomy was performed with surgical drill centered at 3 mm rostral to bregma. The stainless steel impactor was positioned over the MFC at 3.0 mm A/P and 0.0 M/L. These coordinates represent the MFC as described by Paxinos and Watson (The Rat Brain in Stereotaxic Coordinates, Academic Press, San Diego, 1986). The cortical injury was induced using a pneumatically controlled device (Hoffman et al., J. Neurotrauma, 1994, 11, 417-431). Brain impact duration was 0.5 s. using a 5-mm impactor tip with a velocity set at 2.125 m/s and a cortical depth of 2 mm. Following the contusion, bleeding was halded and fascia and scalp were sutured shut. After surgery, animals were allowed to recover from anesthesia on a homeothermic heating blanket in a holding cage until awake. sham surgeries controlled for anesthesia and stress. All surgical procedures were the same, except that sham rates were not given a craniotomy or cortical injury. Previous studies using craniotomy as a control found no differences between shams with or without this procedure. (Goss et al., Pharmacol. Biochem. Behay. 2003, 76(2), 231-242).
# These experimental solutions were then diluted 1:1 with sterile water for a final concentration of HBC of 22.5%.
# All injections were done at the same time with brain harvesting at 24 h post-injury. Rats in each group were weightd prior to treatment to ensure proper dosage. The first injection at 1 h after surgery was given intraperitoneally to ensure rapid adsorption. All subsequent injections were made subcutaneously for gradual adsorption at 6 and 24 h. Injection times and neurosteroid doses were based on previous results of neurosteroid treatment (Roof et al., Twenty First Annual Meeting of the Society for Neuroscience, Miami Beach Fla., p. 191 and He et al., Exp. Neurol. 2004, 189, 404-412). The sterioids were dissolved in vehicle (22.5% 2-hydroxypropyl-b-cyclodextrin solution) at 4 mg/kg. The sham group received no treatment and injury control group received vehicle only.
# At 24 h after traumatic brain injury flresh brains were extracted from the skull and the dorsal cerebrum was separated along the line of the lateral fissure. Four 3-mm coronal sections were cut rostral to caudal, placed in pre-weighed 1.5 mL tubes and re-weighed (wet weight). Tubes were then left uncapped and placed in a vacuum oven set at 60° C. with an atmospheric pressure of 0.3 for 48 h. Following tube recapping, the tissue samples were again weighed (dry weight). Cerebral edema (% water content) was determined as the difference in wet and dry weights divided by wet weight (Roof and Stein Restor. Neurol. Ncurosci., 1992, 4, 425-427). Edema measures are reflective of the difference inwater content between at the average of the two most rostral (injury region) segments and most caudal (occipital cortex) segments of the dorsal sections of the brain.
smiles,measurement,setting,value
CC(=O)[C@H]1CCC2C3CCC4=CC(=O)CC[C@]4(C)C3CC[C@@]21C (stereo partly shown) [progesterone],"morphology of neurons (neuronal processes, number of neurons) after glutamate",[1],rescued neurons
same,reduction of mortality,"[2]; 3 days of intravenous treatment, 100 patients",over 60%
same,functional outcomes,[2]; 30 days post-injury,significantly improved functional outcomes
same,"spontaneous locomotor activity (total distance, resting, stereotypy, movement time)",[3],little or no benefit
same,increase in p-ERK1/2 level compared to control group,MAPK (ERK1/2),2 ×
same,edema compared to subjects treated with vehicle,[4]; 24 hours post brain injury,decrease in edema
same,mean % difference edema,"[4]; brain tissue 24 hours post brain injury, i.p. at 1 h, s.c. at 6 and 24 h",2.0%
